{"source": "patent US8962530B2", "about": "“Inflammatory bowel disease therapies” (Regents of the University of Colorado, priority 2007, dated 2015)", "key": {"TNBS-induced colitis [1]": {"system": "TNBS-induced colitis", "test": "Intestinal permeability, FITC-labeled-dextran method, TNBS-colitis model", "assay_type": "in vivo", "details": "TNBS-colitis mice; 60 mg/kg i.p.; FITC-dextran gavage after 20 hours, serum four hours later; compared to vehicle control", "excerpt": "(§1) The effectiveness of compounds and methods of the present invention on intestinal barrier protection and treatment of inflammatory bowel disease (IBD) in TNBS (2,4,6-trinitrobenzene sulfonic acid)-induced colitis, an established animal model of inflammatory bowel disease, was examined. TNBS-induced colitis was induced in mice using a modification of techniques previously described. (See Morris et al (1989) Gastroenterology 96:795-803; Boirivant et al (1998) J Exp Med 188:1929-1939; Karhausen et al (2004) J Clin Invest 114:1098-1106.) Mice were shaved on the abdomen (causing total depletion of hair and microlesions) and were then sensitized to subsequent treatment by epicutaneous application of 1% TNBS (Sigma-Aldrich) in 100% ethanol on day minus 7. Seven days later, on day 0, animals were sedated with a 2.5% Tribromoethanol solution in phosphate-buffered saline (14 μl/g body weight), followed by intrarectal administration of a 2.5% TNBS solution in 50% ethanol (5 μl/g body weight). Administration of the 2.5% TNBS solution was carried out using an epidural catheter ([…] Plus Epidural Catheter, Arrow International), which was inserted approximately 6 cm ab ano followed by release of the TNBS solution. […] Four hours later, changes in intestinal permeability were determined by measurement of serum FITC-dextran levels."}, "TNBS-induced colitis [2]": {"system": "TNBS-induced colitis", "test": "Intestinal permeability, Texas Red labeled LPS, TNBS-colitis model", "assay_type": "in vivo", "details": "TNBS-colitis mice; 60 mg/kg i.p.; labeled LPS gavage after 20 hours, serum four hours later; compared to vehicle control", "excerpt": "as §1, with “Texas Red labeled LPS” for “FITC-dextran”"}}}
{"smiles": "O=C(O)CNC(=O)c1ncc2cc(Sc3ccccc3)ccc2c1O", "note": "[Compound A, [(4-Hydroxy-7-phenylsulfanyl-isoquinoline-3-carbonyl)-amino]-acetic acid]", "values": [{"measurement": "serum FITC-dextran levels (intestinal permeability)", "setting": "TNBS-induced colitis [1]", "result": "lower levels of serum FITC-dextran"}, {"measurement": "serum Texas Red labeled LPS levels (intestinal permeability)", "setting": "TNBS-induced colitis [2]", "result": "lower levels of serum Texas Red labeled LPS"}]}
